What is called IC50 is the concentration needed to halve the response being measured. A low value points to inhibition by little substance.

This assay deals with MTP (Homo sapiens, UniProt P55157). In words: MTP assay (triglyceride transfer from donor to acceptor vesicles). The conditions noted are these: MTP activity, percent triglyceride transfer from donor to acceptor vesicles, 37° C. Format: biochemical. How it is done: MTP activity was measured using an assay similar to one described by J. R. Wetterau and D. B. Zilversmit in Chemistry and Physics of Lipids, 38, 205-222 (1985). To prepare the donor and acceptor vesicles, the appropriate lipids in chloroform were put into a glass test tube and dried under a stream of nitrogen. A buffer containing 15 mM Tris-HCl pH 7.5, 1 mM EDTA, 40 mM NaCl, 0.02% NaN3 (assay buffer) was added to the dried lipid. The mixture was vortexed briefly and the lipids were then allowed to hydrate for 20 minutes on ice. Vesicles were then prepared by bath sonication (Branson 2200) at room temperature for maximum 15 minutes. Butylated hydroxytoluene was included in all vesicle preparations at a concentration of 0.1%. The lipid transfer assay mixture contained donor vesicles (40 nmol phosphatidylcholine, 7.5 mol % of cardiolipin and 0.25 mol % glycerol tri [1-^14C]-oleate), acceptor vesicles (240 nmol phosphatidylcholine) and 5 mg BSA in a total volume of 675 μl in a 1.5 ml microcentrifuge tube. Test compounds were added dissolved in DMSO (0.13% final concentration). After 5 minutes of pre-incubation at 37° C., the reaction was started by the addition of MTP in 100 μl dialysis buffer. The reaction was stopped by the addition of 400 μl DEAE-52 cellulose pre-equilibrated in 15 mM Tris-HCl pH 7.5, 1 mM EDTA, 0.02% NaN3 (1:1, vol/vol). The mixture was agitated for 4 minutes and centrifuged for 2 minutes at maximum speed in an Eppendorf centrifuge (4° C.) to pellet the DEAE-52-bound donor vesicles. An aliquot of the supernatant containing the acceptor liposomes was counted and the [^14C]-counts were used to calculate the percent triglyceride transfer from donor to acceptor vesicles.
Sequence of MTP (P55157 19-894, species assumed): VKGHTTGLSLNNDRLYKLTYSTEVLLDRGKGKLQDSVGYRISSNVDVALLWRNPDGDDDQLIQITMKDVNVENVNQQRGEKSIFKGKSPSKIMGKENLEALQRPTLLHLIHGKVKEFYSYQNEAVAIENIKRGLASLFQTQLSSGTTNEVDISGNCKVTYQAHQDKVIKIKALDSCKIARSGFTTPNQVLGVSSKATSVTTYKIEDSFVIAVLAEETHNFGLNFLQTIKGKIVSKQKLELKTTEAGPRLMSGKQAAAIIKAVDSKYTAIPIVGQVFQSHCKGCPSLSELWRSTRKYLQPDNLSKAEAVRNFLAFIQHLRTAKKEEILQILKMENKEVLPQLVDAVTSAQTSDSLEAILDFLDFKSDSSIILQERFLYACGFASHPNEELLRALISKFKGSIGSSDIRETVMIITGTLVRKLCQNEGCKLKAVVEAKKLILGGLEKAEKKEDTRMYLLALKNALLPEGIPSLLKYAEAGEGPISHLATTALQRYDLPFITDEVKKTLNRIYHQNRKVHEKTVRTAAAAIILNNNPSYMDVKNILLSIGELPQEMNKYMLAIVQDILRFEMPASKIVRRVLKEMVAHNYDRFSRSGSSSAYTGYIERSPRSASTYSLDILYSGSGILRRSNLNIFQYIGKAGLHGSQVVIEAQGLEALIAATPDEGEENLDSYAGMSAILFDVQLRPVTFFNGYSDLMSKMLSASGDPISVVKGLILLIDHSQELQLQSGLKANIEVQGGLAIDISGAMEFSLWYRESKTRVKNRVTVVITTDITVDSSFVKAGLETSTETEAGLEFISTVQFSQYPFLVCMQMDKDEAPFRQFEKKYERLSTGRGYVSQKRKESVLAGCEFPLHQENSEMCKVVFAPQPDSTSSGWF
Sequence of MTP (P07237 18-508 partner, species assumed): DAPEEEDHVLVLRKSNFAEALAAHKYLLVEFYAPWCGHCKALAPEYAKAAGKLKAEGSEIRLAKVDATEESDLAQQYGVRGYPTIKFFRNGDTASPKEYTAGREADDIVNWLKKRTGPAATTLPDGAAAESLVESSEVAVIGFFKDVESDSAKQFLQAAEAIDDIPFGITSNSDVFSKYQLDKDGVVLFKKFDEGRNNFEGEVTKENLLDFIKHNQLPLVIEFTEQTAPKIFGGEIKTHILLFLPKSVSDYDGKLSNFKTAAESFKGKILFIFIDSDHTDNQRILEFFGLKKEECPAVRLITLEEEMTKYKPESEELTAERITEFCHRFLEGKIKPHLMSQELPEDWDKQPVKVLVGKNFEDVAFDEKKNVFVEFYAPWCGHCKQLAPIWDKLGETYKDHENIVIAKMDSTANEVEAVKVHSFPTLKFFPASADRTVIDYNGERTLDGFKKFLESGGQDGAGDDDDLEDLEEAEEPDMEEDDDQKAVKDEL
On to `CCOC(=O)CC(C)NC(=O)[C@@]1(c2ccccc2)CC[C@H](C(=O)N2CCC(NC(=O)c3cccn(C)c3=O)CC2)c2ccccc21` (mixture of isomers) [Co. No. 223], for which the IC50 is 1790 nM. The figure for `CCNC(=O)[C@]1(c2ccccc2)CC[C@H](C(=O)N2CCC(NC(=O)c3ccccc3OC)CC2)c2ccccc21` [Co. No. 9] is 689 nM; for `C=CCOC(=O)[C@]1(c2ccccc2)CC[C@H](C(=O)N2CCC(NC(=O)c3ccccc3)CC2)c2ccccc21` [Co. No. 12] it is 778 nM; for `CCNC(=O)[C@]1(c2ccccc2)CC[C@@H](CN2CCC(NC(=O)c3ccccc3)CC2)c2ccccc21` [Co. No. 17] it is 277 nM. To `CCOC(=O)[C@]1(c2ccccc2)CC[C@H](C(=O)N2CCN(C(=O)c3ccccc3)CC2)c2ccccc21` [Co. No. 29] belongs 3340 nM; to `CCOC(=O)[C@]1(c2ccccc2)CC[C@H](C(=O)N2CCN(C(=O)c3ccccc3OC)CC2)c2ccccc21` [Co. No. 30], 601 nM. The figure for `CCOC(=O)[C@]1(c2ccccc2)CC[C@H](C(=O)N2CCN(C(=O)c3ccccc3-c3ccc(C(F)(F)F)cc3)CC2)c2ccccc21` [Co. No. 31] is 348 nM. `COc1ccccc1C(=O)NC1CCN(C(=O)[C@H]2CC[C@](C(N)=O)(c3ccccc3)c3ccccc32)CC1` [Co. No. 37] showed an IC50 of 7830 nM. To `CCNC(=O)[C@]1(c2ccccc2)CC[C@@H](C(=O)N2CCC(NC(=O)c3ccccc3OC)CC2)c2ccccc21` [Co. No. 38] belongs 3820 nM; to `COC(=O)[C@]1(c2ccccc2)CC[C@@H](C(=O)N2CCC(NC(=O)c3cc(S(N)(=O)=O)ccc3OC)CC2)c2ccccc21` [Co. No. 52], 627 nM.

Turning to `COC(=O)[C@]1(c2ccccc2)CC[C@@H](C(=O)N2CCC(NC(=O)c3ccccc3OC)CC2)c2ccccc21` [Co. No. 60], the 50% inhibitory concentration (IC50) is 2.51 nM. To `CCOC(=O)[C@H](CO)NC(=O)[C@@]1(c2ccccc2)CC[C@H](C(=O)N2CCC(NC(=O)c3ccccc3OC)CC2)c2ccccc21` [Co. No. 71] belongs 493 nM; to `CCOC(=O)[C@@H]1CCCN1C(=O)[C@@]1(c2ccccc2)CC[C@H](C(=O)N2CCC(NC(=O)c3ccccc3OC)CC2)c2ccccc21` [Co. No. 76], 326 nM; to `CCOC(=O)[C@H]1CCCN1C(=O)[C@@]1(c2ccccc2)CC[C@H](C(=O)N2CCC(NC(=O)c3ccccc3OC)CC2)c2ccccc21` [Co. No. 77], 217 nM. The figure for `COC(=O)[C@@H]1C[C@@H](O)CN1C(=O)[C@@]1(c2ccccc2)CC[C@H](C(=O)N2CCC(NC(=O)c3ccccc3OC)CC2)c2ccccc21` [Co. No. 78] is 3820 nM; for `COc1ccccc1C(=O)NC1CCN(C(=O)[C@H]2CC[C@@](C(=O)N(C)CC(=O)OC(C)(C)C)(c3ccccc3)c3ccccc32)CC1` [Co. No. 87] it is 11.7 nM. Take `COc1ccccc1C(=O)NC1CCN(C(=O)[C@H]2CC[C@@](C(=O)N3C[C@H](OC(C)(C)C)C[C@H]3C(=O)OC(C)(C)C)(c3ccccc3)c3ccccc32)CC1` [Co. No. 91]: the IC50 is greater than 100 nM. To `COc1ccccc1C(=O)NC1CCN(C(=O)[C@H]2CC[C@@](C(=O)N3C[C@H](O)C[C@H]3C(=O)O)(c3ccccc3)c3ccccc32)CC1` [Co. No. 92] belongs greater than 10000 nM; to `COc1ccccc1C(=O)NC1CCN(C(=O)[C@H]2CC[C@@](C(=O)N[C@H](C)C(=O)OC(C)(C)C)(c3ccccc3)c3ccccc32)CC1` [Co. No. 93], 9.33 nM.

Regarding `COc1ccccc1C(=O)NC1CCN(C(=O)[C@H]2CC[C@@](C(=O)N3CCCC3C(=O)OC(C)(C)C)(c3ccccc3)c3ccccc32)CC1` (some centres unmarked) [Co. No. 94], the 50% inhibitory concentration (IC50) is 210 nM.

In turn, `COc1ccccc1C(=O)NC1CCN(C(=O)[C@H]2CC[C@@](C(=O)N[C@@H](C(=O)OC(C)(C)C)c3ccccc3)(c3ccccc3)c3ccccc32)CC1` [Co. No. 95] had an IC50 of 140 nM. To `COc1ccccc1C(=O)NC1CCN(C(=O)[C@H]2CC[C@@](C(=O)N[C@H](C)C(=O)O)(c3ccccc3)c3ccccc32)CC1` [Co. No. 97] belongs 4120 nM; to `COc1ccccc1C(=O)NC1CCN(C(=O)[C@H]2CC[C@@](C(=O)N3CCC[C@@H]3C(=O)O)(c3ccccc3)c3ccccc32)CC1` [Co. No. 98], 4750 nM; to `COc1ccccc1C(=O)NC1CCN(C(=O)[C@H]2CC[C@@](C(=O)N[C@@H](C(=O)O)c3ccccc3)(c3ccccc3)c3ccccc32)CC1` [Co. No. 99], greater than 10000 nM. Molecule `COc1ccccc1C(=O)NC1CCN(C(=O)[C@H]2CC[C@@](C(=O)N[C@H](Cc3ccccc3)C(=O)O)(c3ccccc3)c3ccccc32)CC1` [Co. No. 100] gave a concentration for half-maximal inhibition (IC50) of 6050 nM. The figure for `COc1ccccc1C(=O)NC1CCN(C(=O)[C@H]2CC[C@@](C(=O)N[C@@H](C)C(=O)OC(C)(C)C)(c3ccccc3)c3ccccc32)CC1` [Co. No. 101] is 4.2 nM; for `COc1ccccc1C(=O)NC1CCN(C(=O)[C@H]2CC[C@@](C(=O)N[C@H](C(=O)OC(C)(C)C)c3ccccc3)(c3ccccc3)c3ccccc32)CC1` [Co. No. 111] it is 219 nM; for `COc1ccccc1C(=O)NC1CCN(C(=O)[C@H]2CC[C@@](C(=O)N[C@@H](Cc3ccc(O)cc3)C(=O)OC(C)(C)C)(c3ccccc3)c3ccccc32)CC1` [Co. No. 113] it is 163 nM. To `COc1ccccc1C(=O)NC1CCN(C(=O)[C@H]2CC[C@@](C(=O)N[C@@H](Cc3c[nH]c4ccccc34)C(=O)OC(C)(C)C)(c3ccccc3)c3ccccc32)CC1` [Co. No. 114] belongs 203 nM. To `COc1ccccc1C(=O)NC1CCN(C(=O)[C@H]2CC[C@@](C(=O)N[C@@H](CC(N)=O)C(=O)OC(C)(C)C)(c3ccccc3)c3ccccc32)CC1` [Co. No. 115] belongs 301 nM; to `COc1ccccc1C(=O)NC1CCN(C(=O)[C@H]2CC[C@@](C(=O)N[C@@H](C)C(=O)O)(c3ccccc3)c3ccccc32)CC1` [Co. No. 116], 8410 nM. `COc1ccccc1C(=O)NC1CCN(C(=O)[C@H]2CC[C@@](C(=O)NC(C(=O)O)C(=O)O)(c3ccccc3)c3ccccc32)CC1` [Co. No. 117] had an IC50 of 4750 nM. To `COc1ccccc1C(=O)NC1CCN(C(=O)[C@H]2CC[C@@](C(=O)N[C@@H](C(=O)O)C(C)C)(c3ccccc3)c3ccccc32)CC1` [Co. No. 118] belongs 887 nM. Take `COc1ccccc1C(=O)NC1CCN(C(=O)[C@H]2CC[C@@](C(=O)N[C@@H](CC(C)C)C(=O)O)(c3ccccc3)c3ccccc32)CC1` [Co. No. 119]: the half-inhibitory concentration (IC50) is greater than 10000 nM. The figure for `COc1ccccc1C(=O)NC1CCN(C(=O)[C@H]2CC[C@@](C(=O)N[C@@H](COC(C)(C)C)C(=O)O)(c3ccccc3)c3ccccc32)CC1` [Co. No. 120] is greater than 10000 nM; for `COc1ccccc1C(=O)NC1CCN(C(=O)[C@H]2CC[C@@](C(=O)N[C@@H](CCC(=O)O)C(=O)O)(c3ccccc3)c3ccccc32)CC1` [Co. No. 122] it is 4750 nM; for `COc1ccccc1C(=O)NC1CCN(C(=O)[C@H]2CC[C@@](C(=O)N3CCC[C@H]3C(=O)O)(c3ccccc3)c3ccccc32)CC1` [Co. No. 123] it is 3820 nM. Take `COc1ccccc1C(=O)NC1CCN(C(=O)[C@H]2CC[C@@](C(=O)N[C@H](C(=O)O)c3ccccc3)(c3ccccc3)c3ccccc32)CC1` [Co. No. 124]: the half-inhibitory concentration (IC50) was greater than 10000 nM.

Source of the values: US8114880B2, “Piperidine or piperazine substituted tetrahydro-naphthalene-1-carboxylic acid MTP inhibiting compounds” (Janssen Pharmaceutica N.V., priority 2006, dated 2012).
